Assay results as given in US5399580A, “Therapeutic nucleosides-uses” (Burroughs Wellcome Co., priority 1993, dated 1995).
Like-named read-outs stand apart in the source and are kept apart here.

Columns and labels:
[1] = system: HBV (HepG2 2.2.15, P5A cell line); experiment: Anti-HBV assay: HBV DNA in supernatants of HBV-producing cells, immunoaffinity capture, PCR and hybrid-capture detection; assay type: cell-based, Hepatitis B virus; settings: HepG2 2.2.15, P5A cells, compound on days 1, 3, 5, 7
Method: Anti-HBV activity of compounds of formula (I) and (I-1) was determined with a high-capacity assay for assessing efficacy. Supernatants from growing HBV-producing cells (HepG2 2.2.15, P5A cell line) in 96-well plates are applied to microtiter plate wells which have been coated with a specific monoclonal antibody to HBV surface antigen (HBsAg). Virus particles present in the supernatants bind to the antibody and remain immobilized while other debris is removed by washing. These virus particles are then denatured to release HBV DNA strands which are subsequently amplified by the polymerase chain reaction and detected with a colorimetric hybrid-capture assay. Quantitation is achieved through fitting of a standard curve to dilutions of a cell supernatant with known HBV DNA content. By comparing HBV DNA levels of untreated control cell supernatants with supernatants containing a compound of formula (I) or (I-1), a measure of anti-HBV effectiveness is obtained.
HBV producer cells, 2500 cells/well, were seeded in 96-well culture dishes in RPMI/10% fetal bovine serum/2 mM glutamine (RPMI/10/2:). […] Twenty-five uL HBV standard media dilutions in RPMI/10/2 were added to 2 rows of wells to serve as an internal standard curve for quantitation, and the plates were sealed and incubated at 4° C. overnight. […]
Polymerase chain reaction (Saiki, R. K. et al., Science, 239 (4839) 487-91 (1988)) was carried out on 5uL samples, using a Perkin Elmer PCR kit. […] Primers were chosen from conserved regions in the HBV genome, as determined by alignment of several sequences. […]
PCR products were detected with horse radish peroxidase-labeled oligonucleotide probes (Synthecell Corp., Rockville, Md. 20850), which hybridize to biotinylated strands of denatured PCR products directly in streptavidin-coated microtiter plate wells, using essentially the method of Holodiniy, M. et al., Bio Techniques, 12 (1) 37-39 (1992). […] Quantities of HBV DNA present in the original samples were calculated by comparison with standards. […]

[2] = system: B cells (IM9); experiment: Inhibition of the growth of B cells (IM9); assay type: cell-based; settings: Homo sapiens, IM-9; read-out: I50, growth of IM9 cells
Method: (§1) The compounds of the invention were tested for inhibition of the growth of T cells (Molt 4) and B cells (IM9) by the method of Averett, D., Journal of Virological Methods, 23, (1989), 263-276.

[3] = system: T cells (Molt 4); experiment: Inhibition of the growth of T cells (Molt 4); assay type: cell-based; settings: Homo sapiens, read-out: I50, growth of Molt 4 cells
Method: as §1

[4] = system: Human cytomegalovirus (HCMV); experiment: Anti-HCMV plaque reduction assay in MRC5 cells; assay type: cell-based; settings: Human betaherpesvirus 5, read-out: IC50, anti-HCMV activity (50% inhibitory concentration)
Method: Human cytomegalovirus (HCMV) is assayed in monolayers of MRC5 cells (human embryonic lung) in multiwell trays. Activity of compounds is determined in the plaque reduction assay, in which a cell monolayer is infected with a suspension of HCMV. A range of concentrations of the compound to be tested (of known molarity) is then incorporated into the carboxymethyl cellulose overlay. Plaque numbers of each concentration are expressed as percentage of the control and a dose-response curve is drawn. From this curve the 50% inhibitory concentration (IC50) is estimated.

[5] = Hepatitis B virus, HepG2 2.2.15, read-out: IC50 (median inhibitory concentration, 50 percent decrease in HBV DNA), approximate IC50

| SMILES | IC50 [1, 5] | IC50 ([1]; read-out: IC50 (median inhibitory concentration, 50 percent decrease in HBV DNA), approximate IC50) | IC50 [2] | IC50 [3] | IC50 [4] |
| --- | --- | --- | --- | --- | --- |
| OC[C@@H]1C[C@H](n2c(Br)nc3cc(Cl)c(Cl)cc32)[C@@H](O)[C@H]1O [Ex. 69, (1R,2S,3S,5S)-5-(2-Bromo-5,6-dichloro-1H-benzimidazol-1-yl)-3-(hydroxymethyl)-1,2-cyclopentanediol] | 0.72 µM | 1.3 µM | 35 µM | 29 µM |  |
| OC[C@@H]1C[C@@H](O)[C@H](n2c(Br)nc3cc(Cl)c(Cl)cc32)C1 (relative stereo) [Ex. 13, (±)-(1R*,2R*,4S*)-2-(2-Bromo-5,6-dichloro-1H-benzimidazol-1-yl)-4-(hydroxymethyl)cyclo-pentanol] | 5 µM |  | 88 µM | 32 µM | 1 µM |
| OC[C@@H]1C[C@H](n2c(Br)nc3cc(Cl)c(Cl)cc32)[C@@H](O)[C@H]1O (relative stereo) [Ex. 4, (±)-(1R*,2S*,3S*,5S*)-5-(2-Bromo-5,6-dichloro-1H-benzimidazol-1-yl)-3-(hydroxymethyl)-1,2-cyclopentanediol] |  |  | 48 µM | 39 µM | 1.9 µM |
